# Tested on: 616215-338-R-J1-PDC complex spheroid viability
# Experiment: Anticancer human tumor 616215-338-R-J1-PDC patient-derived colon adenocarcinoma cell line growth inhibition [RAS]
# Conditions: for IC50: curve of first compound; for viability, T/C: stronger effect = lower value
# Outline: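 Tumour cells grown as complex spheroids with HUVEC endothelial cells and mesenchymal stem cells, treated with RAS pathway inhibitor combinations. Each agent spans half-log steps from near clinical Cmax, or 10 microM where Cmax is unknown.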
# [1] = second compound 0.00316 µM, first compound 0.0316 µM
# [2] = second compound 0.00316 µM, first compound 0.1 µM
# [3] = second compound 0.01 µM, first compound 0.0316 µM
# [4] = second compound 0.01 µM, first compound 0.1 µM
# [5] = second compound 0.0316 µM, first compound 0.0316 µM
# [6] = second compound 0.0316 µM, first compound 0.1 µM
# [7] = second compound 0.1 µM, first compound 0.0316 µM
# [8] = second compound 0.1 µM, first compound 0.1 µM
# [9] = second compound 0.316 µM, first compound 0.0316 µM
# [10] = second compound 0.316 µM, first compound 0.1 µM
# [11] = second compound 1 µM, first compound 0.0316 µM
# [12] = second compound 1 µM, first compound 0.1 µM
# 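Further: spheroids exposed to agents for seven days before viability readout.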
# 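Wherever viability, T/C is given: 100% = DMSO vehicle control viability.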
smiles,measurement,setting,value
CC(C)NCC(C(=O)N1CCN(c2ncnc3c2C(C)CC3O)CC1)c1ccc(Cl)cc1 (centres undefined) + C=CC(=O)N1CCN(c2nc(OCC3CCCN3C)nc3c(F)c(-c4nc(N)cc(C)c4C(F)(F)F)c(Cl)cc23)C(C)C1,IC50,second compound 0.00316 µM,9.08 µM
same,IC50,second compound 0.01 µM,9.02 µM
same,IC50,second compound 0.0316 µM,> 10 µM
same,IC50,second compound 0.1 µM,10 µM
same,IC50,second compound 0.316 µM,9.74 µM
same,IC50,second compound 1 µM,9.55 µM
same,"viability, T/C",[1],97.1%
same,"viability, T/C",[2],110%
same,"viability, T/C","second compound 0.00316 µM, first compound 0.316 µM",106%
same,"viability, T/C","second compound 0.00316 µM, first compound 1 µM",112%
same,"viability, T/C","second compound 0.00316 µM, first compound 3.16 µM",95%
same,"viability, T/C","second compound 0.00316 µM, first compound 10 µM",45.9%
same,"viability, T/C",[3],105%
same,"viability, T/C",[4],98.1%
same,"viability, T/C","second compound 0.01 µM, first compound 0.316 µM",102%
same,"viability, T/C","second compound 0.01 µM, first compound 1 µM",116%
same,"viability, T/C","second compound 0.01 µM, first compound 3.16 µM",95.1%
same,"viability, T/C","second compound 0.01 µM, first compound 10 µM",45.5%
same,"viability, T/C",[5],110%
same,"viability, T/C",[6],114%
same,"viability, T/C","second compound 0.0316 µM, first compound 0.316 µM",105%
same,"viability, T/C","second compound 0.0316 µM, first compound 1 µM",115%
same,"viability, T/C","second compound 0.0316 µM, first compound 3.16 µM",99.9%
same,"viability, T/C","second compound 0.0316 µM, first compound 10 µM",54%
same,"viability, T/C",[7],111%
same,"viability, T/C",[8],106%
same,"viability, T/C","second compound 0.1 µM, first compound 0.316 µM",108%
same,"viability, T/C","second compound 0.1 µM, first compound 1 µM",107%
same,"viability, T/C","second compound 0.1 µM, first compound 3.16 µM",98.2%
same,"viability, T/C","second compound 0.1 µM, first compound 10 µM",50%
same,"viability, T/C",[9],103%
same,"viability, T/C",[10],106%
same,"viability, T/C","second compound 0.316 µM, first compound 0.316 µM",104%
same,"viability, T/C","second compound 0.316 µM, first compound 1 µM",108%
same,"viability, T/C","second compound 0.316 µM, first compound 3.16 µM",93.4%
same,"viability, T/C","second compound 0.316 µM, first compound 10 µM",48.5%
same,"viability, T/C",[11],104%
same,"viability, T/C",[12],94.9%
same,"viability, T/C","second compound 1 µM, first compound 0.316 µM",103%
same,"viability, T/C","second compound 1 µM, first compound 1 µM",117%
same,"viability, T/C","second compound 1 µM, first compound 3.16 µM",104%
same,"viability, T/C","second compound 1 µM, first compound 10 µM",47.7%
CC(C)n1nc(-c2ccc3oc(N)nc3c2)c2c(N)ncnc21 + C=CC(=O)N1CCN(c2nc(OCC3CCCN3C)nc3c(F)c(-c4nc(N)cc(C)c4C(F)(F)F)c(Cl)cc23)C(C)C1,IC50,second compound 0.00316 µM,> 0.1 µM
same,IC50,second compound 0.01 µM,> 0.1 µM
same,IC50,second compound 0.0316 µM,> 0.1 µM
same,IC50,second compound 0.1 µM,> 0.1 µM
same,IC50,second compound 0.316 µM,> 0.1 µM
same,IC50,second compound 1 µM,> 0.1 µM
same,"viability, T/C","second compound 0.00316 µM, first compound 0.000316 µM",107%
same,"viability, T/C","second compound 0.00316 µM, first compound 0.001 µM",109%
same,"viability, T/C","second compound 0.00316 µM, first compound 0.00316 µM",99.9%
same,"viability, T/C","second compound 0.00316 µM, first compound 0.01 µM",119%
same,"viability, T/C",[1],120%
same,"viability, T/C",[2],77.9%
same,"viability, T/C","second compound 0.01 µM, first compound 0.000316 µM",100%
same,"viability, T/C","second compound 0.01 µM, first compound 0.001 µM",111%
same,"viability, T/C","second compound 0.01 µM, first compound 0.00316 µM",107%
same,"viability, T/C","second compound 0.01 µM, first compound 0.01 µM",119%
same,"viability, T/C",[3],117%
same,"viability, T/C",[4],70.7%
same,"viability, T/C","second compound 0.0316 µM, first compound 0.000316 µM",105%
same,"viability, T/C","second compound 0.0316 µM, first compound 0.001 µM",109%
same,"viability, T/C","second compound 0.0316 µM, first compound 0.00316 µM",113%
same,"viability, T/C","second compound 0.0316 µM, first compound 0.01 µM",111%
same,"viability, T/C",[5],114%
same,"viability, T/C",[6],71.7%
same,"viability, T/C","second compound 0.1 µM, first compound 0.000316 µM",110%
same,"viability, T/C","second compound 0.1 µM, first compound 0.001 µM",100%
same,"viability, T/C","second compound 0.1 µM, first compound 0.00316 µM",111%
same,"viability, T/C","second compound 0.1 µM, first compound 0.01 µM",116%
same,"viability, T/C",[7],109%
same,"viability, T/C",[8],72.2%
same,"viability, T/C","second compound 0.316 µM, first compound 0.000316 µM",109%
same,"viability, T/C","second compound 0.316 µM, first compound 0.001 µM",108%
same,"viability, T/C","second compound 0.316 µM, first compound 0.00316 µM",111%
same,"viability, T/C","second compound 0.316 µM, first compound 0.01 µM",109%
same,"viability, T/C",[9],129%
same,"viability, T/C",[10],71.3%
same,"viability, T/C","second compound 1 µM, first compound 0.000316 µM",109%
same,"viability, T/C","second compound 1 µM, first compound 0.001 µM",99.6%
same,"viability, T/C","second compound 1 µM, first compound 0.00316 µM",118%
same,"viability, T/C","second compound 1 µM, first compound 0.01 µM",118%
same,"viability, T/C",[11],115%
same,"viability, T/C",[12],70%

# Source: PubChem BioAssay AID2060898 (Molecular Pharmacology Branch, DTP, NCI, 2025)
